Assay results reported in the supplement of paper PMC10307832.

Columns and labels:
Experiment in all cases: relative viability (nuclei count vs DMSO), 5 days (fraction); higher = more cells survive
GW-2580 + Trametinib = compound: COC1=CC=C(C=C1)COC2=C(C=C(C=C2)CC3=CN=C(N=C3N)N)OC [GW-2580] + CC(=O)Nc1cccc(-n2c(=O)n(C3CC3)c(=O)c3c(Nc4ccc(I)cc4F)n(C)c(=O)c(C)c32)c1 [Trametinib] (partner 0.02 µM)
In short: (§1)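 Each reported value is a median over duplicate plates. It expresses relative viability: treated-well nuclei count divided by vehicle-well nuclei count. Lung cancer cell lines in 1536-well plates were dosed by pin tool a day after seeding, alone with one drug or with a fixed anchor-drug dose plus five library-drug doses (not always all listed) in √10 steps, and nuclei were counted after 5 days.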

GW-2580 + Pictilisib = compound: COC1=CC=C(C=C1)COC2=C(C=C(C=C2)CC3=CN=C(N=C3N)N)OC [GW-2580] + CS(=O)(=O)N1CCN(Cc2cc3nc(-c4cccc5[nH]ncc45)nc(N4CCOCC4)c3s2)CC1 [Pictilisib] (partner 1 µM)
In short: as §1

GW-2580 + Linsitinib = compound: COC1=CC=C(C=C1)COC2=C(C=C(C=C2)CC3=CN=C(N=C3N)N)OC [GW-2580] + C[C@]1(O)C[C@@H](c2nc(-c3ccc4ccc(-c5ccccc5)nc4c3)c3c(N)nccn32)C1 [Linsitinib] (partner 1 µM)
In short: as §1

GW-2580 + AZD7762 = compound: COC1=CC=C(C=C1)COC2=C(C=C(C=C2)CC3=CN=C(N=C3N)N)OC [GW-2580] + NC(=O)Nc1cc(-c2cccc(F)c2)sc1C(=O)N[C@H]1CCCNC1 [AZD7762] (partner 0.2 µM)
In short: as §1

Fedratinib + Phenformin = compound: Cc1cnc(Nc2ccc(OCCN3CCCC3)cc2)nc1Nc1cccc(S(=O)(=O)NC(C)(C)C)c1 [Fedratinib] + N=C(N)NC(=N)NCCc1ccccc1 [Phenformin] (partner 250 µM)
In short: as §1

Cell Line | relative viability (GW-2580 + Trametinib; first compound 0.08 µM) | relative viability (GW-2580 + Trametinib; first compound 0.8 µM) | relative viability (GW-2580 + Trametinib; first compound 2.53 µM) | relative viability (GW-2580 + Trametinib; first compound 8 µM) | relative viability (GW-2580 + Pictilisib; first compound 0.08 µM) | relative viability (GW-2580 + Pictilisib; first compound 0.8 µM) | relative viability (GW-2580 + Pictilisib; first compound 2.53 µM) | relative viability (GW-2580 + Pictilisib; first compound 8 µM) | relative viability (GW-2580 + Linsitinib; first compound 0.08 µM) | relative viability (GW-2580 + Linsitinib; first compound 0.8 µM) | relative viability (GW-2580 + Linsitinib; first compound 2.53 µM) | relative viability (GW-2580 + Linsitinib; first compound 8 µM) | relative viability (GW-2580 + AZD7762; first compound 0.08 µM) | relative viability (GW-2580 + AZD7762; first compound 0.8 µM) | relative viability (GW-2580 + AZD7762; first compound 2.53 µM) | relative viability (GW-2580 + AZD7762; first compound 8 µM) | relative viability (Fedratinib + Phenformin; first compound 0.1 µM) | relative viability (Fedratinib + Phenformin; first compound 0.3162 µM) | relative viability (Fedratinib + Phenformin; first compound 1 µM)
NCI-H322M | 0.466 | 0.485 | 0.428 | 0.59 | 0.493 | 0.534 | 0.501 | 0.531 | 1.01 | 0.958 | 0.857 | 1.05 | 0.508 | 0.706 | 0.598 | 0.531 | 0.722 | 0.774 | 0.436
NCI-H3122 | 0.305 | 0.264 | 0.18 | 0.234 | 0.586 | 0.611 | 0.584 | 0.576 | 0.993 | 1.13 | 1.16 | 1.05 | 1.01 | 1.02 | 1.06 | 1 | 0.292 | 0.407 | 0.339
NCI-H2087 | 0.178 | 0.204 | 0.2 | 0.227 | 1.04 | 1.03 | 0.61 | 0.767 | 1.08 | 0.935 | 0.924 | 0.818 | 1.33 | 1.4 | 1.12 | 0.937 | 0.45 | 0.477 | 0.379
LC-2-ad | 0.883 | 0.995 | 0.923 | 0.816 | 0.577 | 0.502 | 0.447 | 0.413 | 0.817 | 0.874 | 0.84 | 0.786 | 0.866 | 0.948 | 0.826 | 0.873 | 0.595 | 0.624 | 0.528
NCI-H1915 | 0.312 | 0.288 | 0.251 | 0.279 | 0.986 | 0.906 | 0.954 | 0.886 | 1.2 | 1.13 | 1.1 | 1.11 | 0.772 | 0.708 | 0.692 | 0.743 | 0.374 | 0.361 | 0.298
NCI-H1793 | 0.467 | 0.425 | 0.344 | 0.464 | 0.312 | 0.33 | 0.216 | 0.254 | 0.93 | 0.934 | 0.814 | 0.824 | 0.587 | 0.382 | 0.266 | 0.323 | 0.27 | 0.178 | 0.312
RERF-LC-KJ | 0.821 | 0.953 | 0.769 | 0.82 | 0.553 | 0.404 | 0.478 | 0.515 | 0.946 | 0.939 | 0.816 | 0.815 | 1.11 | 1.25 | 0.825 | 0.913 | 0.384 | 0.433 | 0.373
LXF-289 | 0.724 | 0.708 | 0.688 | 0.651 | 0.82 | 0.849 | 0.653 | 0.672 | 1.02 | 0.992 | 0.997 | 0.858 | 1.17 | 1.2 | 1.07 | 1.06 | 0.503 | 0.488 | 0.517
PC-14 | 0.806 | 0.675 | 0.585 | 0.637 | 0.909 | 1.03 | 0.781 | 0.725 | 1.12 | 0.987 | 0.934 | 1.03 | 0.47 | 0.484 | 0.271 | 0.396 | 0.427 | 0.676 | 0.386
NCI-H650 | 0.945 | 1.06 | 0.953 | 0.907 | 0.786 | 0.979 | 0.71 | 0.78 | 0.94 | 1.02 | 0.547 | 1.17 | 0.884 | 1.28 | 0.869 | 0.982 | 0.431 | 0.441 | 0.426
NCI-H1666 | 0.846 | 0.767 | 0.796 | 0.872 | 0.55 | 0.653 | 0.316 | 0.573 | 0.765 | 1.02 | 0.742 | 0.724 | 0.824 | 1.1 | 0.852 | 0.826 | 0.57 | 0.575 | 0.522
NCI-H2085 | 0.526 | 0.515 | 0.484 | 0.638 | 0.498 | 0.386 | 0.461 | 0.494 | 0.818 | 1.13 | 0.978 | 0.879 | 1.14 | 1.14 | 0.989 | 0.919 | 0.671 | 0.749 | 0.688
NCI-H1734 | 0.765 | 0.69 | 0.695 | 0.647 | 0.491 | 0.478 | 0.431 | 0.436 | 0.899 | 0.839 | 0.895 | 0.911 | 0.543 | 0.558 | 0.481 | 0.568 | 0.382 | 0.385 | 0.353
NCI-H2126 | 0.547 | 0.575 | 0.5 | 0.649 | 0.483 | 0.497 | 0.448 | 0.452 | 0.739 | 0.731 | 0.653 | 0.743 | 1.06 | 1.02 | 0.942 | 1.03 | 0.532 | 0.569 | 0.498
EMC-BAC-2 | 0.805 | 0.988 | – | 0.856 | 0.577 | 0.618 | 0.452 | 0.519 | 0.839 | 0.876 | 0.727 | 0.875 | 1.15 | 1.33 | – | 1.01 | 0.404 | 0.523 | 0.421
NCI-H1993 | 0.507 | 0.576 | 0.522 | 0.519 | 0.827 | 0.804 | – | 0.655 | 0.757 | 0.735 | – | 0.714 | 0.851 | 0.772 | 0.687 | 0.868 | 0.508 | 0.476 | 0.493
NCI-H647 | 0.474 | 0.469 | 0.406 | 0.479 | 0.37 | 0.515 | – | 0.48 | 1.39 | 1.39 | 1.09 | 1.33 | 0.567 | 0.621 | 0.326 | 0.405 | 0.475 | 0.473 | 0.309
